{"source": "patent US9120805B2", "about": "“Substituted pyrrolo[1,2-A]pyrazin-1-ones and pyrazolo[1,5-A]pyrazin-4-ones as inhibitors of tankyrase and poly(ADP-ribose)polymerase activity” (Merck Patent GmbH, priority 2012, dated 2015)"}
{"target": "T1, GST-tagged Tnks-2 (873-1166 aa) (Homo sapiens, UniProt Q9H2K2)", "T1 construct": "GST-tagged Tnks-2 (873-1166 aa, prepared in-house); made in house", "T1 sequence (Q9H2K2 873-1166)": "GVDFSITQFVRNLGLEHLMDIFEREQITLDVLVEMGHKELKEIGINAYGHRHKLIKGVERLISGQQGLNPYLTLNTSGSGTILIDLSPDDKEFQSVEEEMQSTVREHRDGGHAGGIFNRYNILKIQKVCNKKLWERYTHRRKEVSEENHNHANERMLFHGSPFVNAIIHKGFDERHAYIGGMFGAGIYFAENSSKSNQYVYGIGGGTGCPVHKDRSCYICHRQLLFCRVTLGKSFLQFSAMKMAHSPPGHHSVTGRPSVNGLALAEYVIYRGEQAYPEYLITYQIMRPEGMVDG", "assay": "TNKS2 activity ELISA (autoparsylation assay)", "assay_type": "biochemical", "details": "not given", "protocol": "(§1) Description of the TNKS1 and TNKS2 ELISA Assay\n(§2) Biochemical Activity Testing of TNKS 1 and 2: Activity ELISA (Autoparsylation Assay)\n(§3) For analysis of autoparsylation activity of TNKS 1 and 2 an activity ELISA is performed: In the first step GST tagged TNKS is captured on a Glutathione coated plate. Then the activity assay with biotinylated NAD is performed in the absence/presence of the compounds. During the enzymatic reaction GST tagged TNKS transfers biotinylated ADP-ribose to itself from biotinylated NAD as co-substrate. For the detection streptavidin-HRP conjugate is added that binds to the biotinylated TNKS and is thereby captured to the plates. The amount of biotinylated resp. autoparsylated TNKS is detected with a luminescence substrate for HRP. The level of the luminescence signal correlates directly with the amount of autoparsylated TNKS and therefore with activity of TNKS.\n(§4) The activity ELISA is performed in 384 well Glutathione coated microtiter plates (Express capture Glutathione coated plate, Biocat, Heidelberg, Germany). The plates are pre-equilibrated with PBS. Then the plates are incubated with 50 μl 20 ng/well GST-tagged Tnks-1 (1023-1327 aa, prepared in-house), respectively GST-tagged Tnks-2 (873-1166 aa, prepared in-house) in assay buffer (50 mM HEPES, 4 mM Mg-chloride, 0.05% Pluronic F-68, 2 mM DTT, pH 7.7) overnight at 4° C. The plates are washed 3 times with PBS-Tween-20. The wells are blocked by incubation at room temperature for 20 minutes with 50 μl blocking buffer (PBS, 0.05% Tween-20, 0.5% BSA). Afterwards the plates are washed 3 times with PBS-Tween-20. The enzymatic reaction is performed in 50 μl reaction solution (50 mM HEPES, 4 mM Mg-chloride, 0.05% Pluronic F-68, 1.4 mM DTT, 0.5% DMSO, pH 7.7) with 10 μM bio-NAD (Biolog, Life science Inst., Bremen, Germany) as co-substrate in the absence or presence of the test compound (10 dilution concentrations) for 1 hour at 30° C. The reaction is stopped by 3 times washing with PBS-Tween-20. For the detection 50 μl of 20 ng/μl Streptavidin, HRP conjugate (MoBiTec, Göttingen, Germany) in PBS/0.05% Tween-20/0.01% BSA are added and the plates are incubated for 30 minutes at room temperature. After three times washing with PBS-Tween-20 50 μl of SuperSignal ELISA Femto Maximum sensitivity substrate solution (ThermoFisherScientific (Pierce), Bonn, Germany) are added. Following a 1 minute incubation at room temperature luminescence signals are measured with an Envision multimode reader (Perkin Elmer LAS Germany GmbH) at 700 nm. The full value used is the inhibitor-free reaction. The pharmacological zero value used is XAV-939 (Tocris) in a final concentration of 5 μM. The inhibitory values (1050) are determined using either the program Symyx Assay Explorer® or Condosseo® from GeneData.", "units": {"IC50": "nM"}}
{"smiles": "Cc1cc2c(=O)[nH]c(-c3cnn(C(C)(C)C)c3)cn2c1", "note": "[Compound A57, 3-(1-tert-butyl-1H-pyrazol-4-yl)-7-methyl-2H-pyrrolo[1,2-a]pyrazin-1-one]", "IC50": "300 to 3000"}
{"smiles": "CN1CCC(c2ccc(-c3cn4cc(F)cc4c(=O)[nH]3)cc2)CC1", "note": "[Compound A81, 7-fluoro-3-[4-(1-methyl-piperidin-4-yl)-phenyl]-2H-pyrrolo[1,2-a]pyrazin-1-one]", "IC50": "< 300"}
{"smiles": "CC(C)(O)c1ccc(-c2cn3c(F)c(F)cc3c(=O)[nH]2)cc1", "note": "[Compound A83, 6,7-difluoro-3-[4-(1-hydroxy-1-methyl-ethyl)-phenyl]-2H-pyrrolo[1,2-a]pyrazin-1-one]", "IC50": "< 300"}
{"target": "T2, His-tagged Parp-1 (Homo sapiens, UniProt P09874)", "T2 construct": "purchased Enzo Life Sciences GmbH", "T2 sequence (P09874 whole entry)": "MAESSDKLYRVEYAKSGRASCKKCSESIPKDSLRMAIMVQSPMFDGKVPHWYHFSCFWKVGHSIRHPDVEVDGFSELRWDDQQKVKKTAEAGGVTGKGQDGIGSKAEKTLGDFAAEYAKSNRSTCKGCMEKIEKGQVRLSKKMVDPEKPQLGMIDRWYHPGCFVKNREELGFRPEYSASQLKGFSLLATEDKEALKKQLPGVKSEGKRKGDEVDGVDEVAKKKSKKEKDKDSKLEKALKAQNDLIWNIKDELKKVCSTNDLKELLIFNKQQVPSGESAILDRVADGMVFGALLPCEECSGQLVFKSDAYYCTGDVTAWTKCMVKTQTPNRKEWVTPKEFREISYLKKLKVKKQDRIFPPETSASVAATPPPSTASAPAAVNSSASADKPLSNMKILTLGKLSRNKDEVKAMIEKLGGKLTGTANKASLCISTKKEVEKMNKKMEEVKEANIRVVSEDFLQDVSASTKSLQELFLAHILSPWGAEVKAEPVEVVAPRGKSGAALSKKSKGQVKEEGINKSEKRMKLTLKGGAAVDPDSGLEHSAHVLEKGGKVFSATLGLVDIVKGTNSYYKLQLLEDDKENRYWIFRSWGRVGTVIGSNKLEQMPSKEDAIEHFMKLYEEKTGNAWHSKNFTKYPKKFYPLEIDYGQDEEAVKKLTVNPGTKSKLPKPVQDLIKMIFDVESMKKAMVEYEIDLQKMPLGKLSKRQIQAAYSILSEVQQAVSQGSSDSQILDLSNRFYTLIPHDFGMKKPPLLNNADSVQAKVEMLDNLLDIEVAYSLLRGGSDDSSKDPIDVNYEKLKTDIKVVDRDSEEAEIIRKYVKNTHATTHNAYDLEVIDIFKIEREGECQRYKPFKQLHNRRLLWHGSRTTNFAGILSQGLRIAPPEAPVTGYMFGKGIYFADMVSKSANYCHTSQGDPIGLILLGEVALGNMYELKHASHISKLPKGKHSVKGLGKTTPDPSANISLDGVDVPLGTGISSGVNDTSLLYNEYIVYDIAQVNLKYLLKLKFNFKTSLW", "assay": "PARP-1 autoparsylation assay (HTRF)", "assay_type": "biochemical", "details": "PARP-1 autoparsylation HTRF assay", "excerpt": "Description of the PARP1 Assay\nBiochemical Activity Testing of PARP-1: Autoparsylation Assay\nThe autoparsylation assay is run in two steps: the enzymatic reaction in which\nHis-tagged Parp-1 transfers biotinylated ADP-ribose/ADP-ribose to itself from biotinylated NAD/NAD as co-substrate and the detection reaction where a time resolved FRET between cryptate labelled anti-His antibody bound to the His tag of the enzyme and Xlent® labelled-streptavidin bound the biotin-parsylation residue is analysed. The autoparsylation activity is detectable directly via the increase in HTRF signal.\nThe autoparsylation assay is performed as 384-well HTRF® (Cisbio, Codolet, France) assay format in Greiner low volume nb 384-well microtiter plates. 35 nM His-tagged Parp-1 (human, recombinant, Enzo Life Sciences GmbH, Lörrach, Germany) and a mixture of 125 nM bio-NAD (Biolog, Life science Inst., Bremen, Germany) and 800 nM NAD as co-substrate are incubated in a total volume of 6 μl (100 mM Tris/HCl, 4 mM Mg-chloride, 0.01% IGEPAL® CA630, 1 mM DTT, 0.5% DMSO, pH 8, 13 ng/μl activated DNA (BPS Bioscience, San Diego, US)) in the absence or presence of the test compound (10 dilution concentrations) for 150 min at 23° C. The reaction is stopped by the addition of 4 μl of the Stop/detection solution (70 nM SA-Xlent® (Cisbio, Codolet, France), 2.5 nM Anti-His-K® (Eu-labelled anti-His, Cisbio, Codolet, France) in 50 mM HEPES, 400 mM KF, 0.1% BSA, 20 mM EDTA, pH 7.0). After 1 h incubation at room temperature the HTRF is measured with an Envision multimode reader (Perkin Elmer LAS Germany GmbH) at excitation wavelength 340 nm (laser mode) and emission wavelengths 615 nm and 665 nm. The ratio of the emission signals is determined. The full value used is the inhibitor-free reaction. The pharmacological zero value used is Olaparib (LClabs, Woburn, US) in a final concentration of 1 μM. The inhibitory values (IC50) are determined using either the program Symyx Assay Explorer® or Condosseo® from GeneData.", "units": {"IC50": "nM"}}
{"smiles": "Cc1cc2c(=O)[nH]c(-c3cnn(C(C)(C)C)c3)cn2c1", "note": "[Compound A57, 3-(1-tert-butyl-1H-pyrazol-4-yl)-7-methyl-2H-pyrrolo[1,2-a]pyrazin-1-one]", "IC50": "300 to 3000"}
{"smiles": "CC(C)(O)c1ccc(-c2cn3c(F)c(F)cc3c(=O)[nH]2)cc1", "note": "[Compound A83, 6,7-difluoro-3-[4-(1-hydroxy-1-methyl-ethyl)-phenyl]-2H-pyrrolo[1,2-a]pyrazin-1-one]", "IC50": "< 300"}
{"target": "T3, GST-tagged Tankyrase-2 (873-1166 aa) (Homo sapiens, UniProt Q9H2K2)", "T3 construct": "GST-tagged Tankyrase-2 (873-1166 aa)", "T3 sequence (Q9H2K2 873-1166)": "as the sequence (Q9H2K2 873-1166) above", "assay": "Tankyrase 2 autoparsylation assay (HTRF enzyme assay)", "assay_type": "biochemical", "details": "not given", "protocol": "(§5) Biochemical Activity Testing of Tankyrase 1 and 2: Autoparsylation Assay\n(§6) The autoparsylation assay is run in two steps: the enzymatic reaction in which GST-tagged Tankyrase-1, resp Tankyrase-2 transferred biotinylated ADP-ribose to itself from biotinylated NAD as co-substrate and the detection reaction where a time resolved FRET between cryptate labelled anti-GST bound to the GST tag of the enzyme and Xlent® labelled-streptavidin bound the biotin-parsylation residue is analysed. The autoparsylation activity was detectable directly via the increase in HTRF signal.\n(§7) The autoparsylation assay is performed as 384-well HTRF® (Cisbio, Codolet, France) assay format in Greiner low volume nb 384-well microtiter plates and is used for high throughput screen. 250 nM GST-tagged Tankyrase-1 (1023-1327 aa), respectively about 250 nM GST-tagged Tankyrase-2 (873-1166 aa) and 5 μM bio-NAD (Biolog, Life science Inst., Bremen, Germany) as co-substrate are incubated in a total volume of 5 μl (50 mM HEPES, 4 mM Mg-chloride, 0.05% Pluronic F-68, 1.4 mM DTT, 0.5% DMSO, pH 7.7) in the absence or presence of the test compound (10 dilution concentrations) for 90 min at 30° C. The reaction is stopped by the addition of 1 μl 50 mM EDTA solution. 2 μl of the detection solution (1.6 μM SA-Xlent® (Cisbio, Codolet, France), 7.4 nM Anti-GST-K® (Eu-labelled anti-GST, Cisbio, Codolet, France) in 50 mM HEPES, 800 mM KF, 0.1% BSA, 20 mM EDTA, 0.1% CHAPS, pH 7.0) are added. After 1 h incubation at room temperature the HTRF is measured with an Envision multimode reader (Perkin Elmer LAS Germany GmbH) at excitation wavelength 340 nm (laser mode) and emission wavelengths 615 nm and 665 nm. The ratio of the emission signals is determined. The full value used is the inhibitor-free reaction. The pharmacological zero value used is XAV-939 (Tocris) in a final concentration of 5 μM. The inhibitory values (IC50) are determined using either the program Symyx Assay Explorer® or Condosseo® from GeneData.", "units": {"IC50": "nM"}}
{"smiles": "Cc1cc2c(=O)[nH]c(-c3cnn(C(C)(C)C)c3)cn2c1", "note": "[Compound A57, 3-(1-tert-butyl-1H-pyrazol-4-yl)-7-methyl-2H-pyrrolo[1,2-a]pyrazin-1-one]", "IC50": "300 to 3000"}
{"smiles": "CN1CCC(c2ccc(-c3cn4cc(F)cc4c(=O)[nH]3)cc2)CC1", "note": "[Compound A81, 7-fluoro-3-[4-(1-methyl-piperidin-4-yl)-phenyl]-2H-pyrrolo[1,2-a]pyrazin-1-one]", "IC50": "300 to 3000"}
{"test_system": "tankyrase 1/2", "assay": "Cellular inhibition of Tankyrase: increase of Axin2 level in DLD1 cells (Luminex)", "assay_type": "cell-based", "details": "24 hours, read-out: EC50 tankyrase 1/2 (cell assay)", "protocol": "Measurement of Cellular Inhibition of Tankyrase\nSince Tankyrases have been described to modulate cellular level of Axin2 (Huang et al., 2009; Nature) the increase of Axin2 level is used as read-out for determination of cellular inhibition of Tankyrases in a Luminex based assay.\nCells of the colon carcinoma cell line DLD1 are plated in 96 well plates with 1.5×10^4 cells per well. Next day, cells are treated with a serial dilution of test compound in seven steps as triplicates with a final DMSO concentration of 0.3%. After 24 hours, cells are lysed in lysis buffer (20 mM Tris/HCl pH 8.0, 150 mM NaCl, 1% NP40, 10% Glycerol) and lysates are cleared by centrifugation through a 96 well filter plate (0.65 μm). Axin2 protein is isolated from cell lysates by incubation with a monoclonal anti-Axin2 antibody (R&D Systems #MAB6078) that is bound to fluorescent carboxybeads. Then, bound Axin2 is specifically detected with a polyclonal anti-Axin2 antibody (Cell Signaling #2151) and an appropriate PE-fluorescent secondary antibody. The amount of isolated Axin2 protein is determined in a Luminex^200 machine (Luminex Corporation) according to the manufacturer's instruction by counting 100 events per well. Inhibition of Tankyrase by test compounds results in higher levels of Axin2 which directly correlates with an increase of detectable fluorescence. As controls cells are treated with solvent alone (neutral control) and with a Tankyrase reference inhibitor IWR-2 (3E-06 M) which refers as control for maximum increase of Axin2. For analysis, the obtained data are normalized against the untreated solvent control and fitted for determination of the EC50 values using the Assay Explorer software (Accelrys).", "units": {"EC50": "nM"}}
{"smiles": "CN1CCC(c2ccc(-c3cn4cc(F)cc4c(=O)[nH]3)cc2)CC1", "note": "[Compound A81, 7-fluoro-3-[4-(1-methyl-piperidin-4-yl)-phenyl]-2H-pyrrolo[1,2-a]pyrazin-1-one]", "EC50": "300 to 3000"}
{"target": "T4, GST-tagged Tankyrase-1 (1023-1327 aa) (Homo sapiens, UniProt O95271)", "T4 construct": "GST-tagged Tankyrase-1 (1023-1327 aa)", "T4 sequence (O95271 1023-1327)": "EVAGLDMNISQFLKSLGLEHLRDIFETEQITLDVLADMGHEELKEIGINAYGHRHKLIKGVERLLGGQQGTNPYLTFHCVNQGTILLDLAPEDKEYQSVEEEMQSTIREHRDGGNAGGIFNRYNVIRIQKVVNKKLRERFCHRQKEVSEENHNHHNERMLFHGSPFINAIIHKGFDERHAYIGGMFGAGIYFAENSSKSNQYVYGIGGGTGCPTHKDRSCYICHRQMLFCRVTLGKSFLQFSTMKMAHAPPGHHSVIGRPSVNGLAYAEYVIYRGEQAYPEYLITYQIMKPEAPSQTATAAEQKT", "assay": "Tankyrase 1 autoparsylation assay (HTRF enzyme assay)", "assay_type": "biochemical", "details": "not given", "protocol": "as §5, §6, §7", "units": {"IC50": "nM"}}
{"smiles": "Cc1cc2c(=O)[nH]c(-c3cnn(C(C)(C)C)c3)cn2c1", "note": "[Compound A57, 3-(1-tert-butyl-1H-pyrazol-4-yl)-7-methyl-2H-pyrrolo[1,2-a]pyrazin-1-one]", "IC50": "300 to 3000"}
{"smiles": "CN1CCC(c2ccc(-c3cn4cc(F)cc4c(=O)[nH]3)cc2)CC1", "note": "[Compound A81, 7-fluoro-3-[4-(1-methyl-piperidin-4-yl)-phenyl]-2H-pyrrolo[1,2-a]pyrazin-1-one]", "IC50": "< 300"}
{"target": "T5, GST-tagged Tnks-1 (1023-1327 aa) (Homo sapiens, UniProt O95271)", "T5 construct": "GST-tagged Tnks-1 (1023-1327 aa, prepared in-house); made in house", "T5 sequence (O95271 1023-1327)": "as above", "assay": "TNKS1 activity ELISA (autoparsylation assay)", "assay_type": "biochemical", "details": "not given", "protocol": "as §1, §2, §3, §4", "units": {"IC50": "nM"}}
{"smiles": "Cc1cc2c(=O)[nH]c(-c3cnn(C(C)(C)C)c3)cn2c1", "note": "[Compound A57, 3-(1-tert-butyl-1H-pyrazol-4-yl)-7-methyl-2H-pyrrolo[1,2-a]pyrazin-1-one]", "IC50": "< 300"}
{"smiles": "CN1CCC(c2ccc(-c3cn4cc(F)cc4c(=O)[nH]3)cc2)CC1", "note": "[Compound A81, 7-fluoro-3-[4-(1-methyl-piperidin-4-yl)-phenyl]-2H-pyrrolo[1,2-a]pyrazin-1-one]", "IC50": "< 300"}
{"smiles": "CC(C)(O)c1ccc(-c2cn3c(F)c(F)cc3c(=O)[nH]2)cc1", "note": "[Compound A83, 6,7-difluoro-3-[4-(1-hydroxy-1-methyl-ethyl)-phenyl]-2H-pyrrolo[1,2-a]pyrazin-1-one]", "IC50": "< 300"}
